Where a name gives a salt, the structure may show the parent alone.
Legend:
Type in all cases: in vivo
[1] = system: Beet Armyworm (Spodoptera exigua, LAPHEG); test: Bioassay on Beet Armyworm (BAW), 128-well diet tray assay; conditions: Beet Armyworm, 128-well diet tray assay, read-out: BAW rating
Outline: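 Second-instar larvae, one to five per well, placed on artificial diet surface-treated with 50 μg/cm^2 compound applied in 90:10 acetone-water and dried. Held 5–7 days at 25° C., 14:10 light-dark. Percent mortality recorded per well and averaged over eight wells.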

[2] = system: Cabbage Looper (Trichoplusia ni, TRIPNI); test: Bioassay on Cabbage Looper (CL), 128-well diet tray assay; conditions: Trichoplusia ni; Cabbage Looper, 128-well diet tray assay; read-out: CL rating
Outline: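 Test molecule is dissolved in 90:10 acetone-water and applied at 50 μg/cm^2 onto artificial diet, then dried. One to five second-instar larvae go into each of eight wells. Trays, sealed but vented, stay at 25° C., 14:10 light-dark, five to seven days, after which mortality is averaged.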

[3] = system: Yellow Fever Mosquito (Aedes aegypti, AEDSAE); test: Bioassay on Yellow Fever Mosquito (YFM), 96-well plate larval assay; conditions: Yellow Fever Mosquito, 96-well plate larval assay
Outline: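 Compound stocks at 4000 ppm in DMSO were diluted with 90:10 water/acetone, and 15 μL aliquots were dispensed into six replicate plates. About 1-day-old larvae in liver-powder water were added per well. Plates were covered and held at room temperature for 3 days before each well was scored for mortality.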

SMILES	pest or weed control at 50 µg/cm2 [1] [%]	pest or weed control at 50 µg/cm2 [2] [%]	YFM rating [3]
CN(C(=O)c1cc(NC(=O)[C@H]2[C@H](c3ccc(C(F)F)c(F)c3)C2(Cl)Cl)ccc1Cl)c1ccc(F)cc1 (relative stereo) [F597, 2-Chloro-5-(trans-2,2-dichloro-3-(4-(difluoromethyl)-3-fluorophenyl)cyclopropane-1-carboxamido)-N-(4-fluorophenyl)-N-methylbenzamide]	50 to 100	50 to 100	A (80-100)
CN(C(=O)c1cc(NC(=O)[C@H]2[C@H](c3cccc(C(F)F)c3)C2(Cl)Cl)ccc1Cl)c1ccc(F)cc1 (relative stereo) [F598, 2-Chloro-5-(trans-2,2-dichloro-3-(3-(difluoromethyl)phenyl)cyclopropane-1-carboxamido)-N-(4-fluorophenyl)-N-methylbenzamide]	50 to 100	50 to 100	A (80-100)
CN(C(=O)c1cc(NC(=O)[C@H]2[C@H](c3ccc(C(F)F)cc3)C2(Cl)Cl)ccc1Cl)c1ccc(F)cc1 (relative stereo) [F599, 2-Chloro-5-(trans-2,2-dichloro-3-(4-(difluoromethyl)phenyl)cyclopropane-1-carboxamido)-N-(4-fluorophenyl)-N-methylbenzamide]	50 to 100	50 to 100	A (80-100)
O=C(Nc1ccc(F)cc1F)c1cc(NC(=O)[C@H]2[C@H](c3ccc(F)c(Cl)c3)C2(Cl)Cl)ccc1Cl (relative stereo) [PF6, trans-2-Chloro-5-(2,2-dichloro-3-(3-chloro-4-fluorophenyl)cyclopropane-1-carboxamido)-N-(2,4-difluorophenyl)benzamide]	50 to 100	50 to 100	A (80-100)
CCc1ccc(NC(=O)[C@H]2[C@H](c3cc(Cl)cc(Cl)c3)C2(Cl)Cl)cc1C(=O)Nc1ccc(F)cc1 (relative stereo) [PF8, trans-5-(2,2-Dichloro-3-(3,5-dichlorophenyl)cyclopropanecarboxamido)-2-ethyl-N-(4-fluorophenyl)benzamide]	50 to 100	50 to 100	A (80-100)
C=Cc1ccc(NC(=O)[C@H]2[C@H](c3cc(Cl)cc(Cl)c3)C2(Cl)Cl)cc1C(=O)Nc1ccc(F)cc1 (relative stereo) [PF9, trans-5-(2,2-Dichloro-3-(3,5-dichlorophenyl)cyclopropanecarboxamido)-N-(4-fluorophenyl)-2-vinylbenzamide]	50 to 100	50 to 100	A (80-100)
O=C(Nc1ccc(SCC(F)(F)F)cc1)c1cc(NC(=O)[C@H]2[C@H](c3cc(Cl)cc(Cl)c3)C2(Cl)Cl)ccc1Cl (relative stereo) [PF10, trans-2-Chloro-5-(2,2-dichloro-3-(3,5-dichlorophenyl)cyclopropane-1-carboxamido)-N-(4-((2,2,2-trifluoroethyl)thio)phenyl)benzamide]	50 to 100	50 to 100	B (More than 0-Less than 80)
O=C(Nc1ccc(SC(F)(F)F)cc1)c1cc(NC(=O)[C@H]2[C@H](c3cc(Cl)cc(Cl)c3)C2(Cl)Cl)ccc1Cl (relative stereo) [PF11, trans-2-Chloro-5-(2,2-dichloro-3-(3,5-dichlorophenyl)cyclopropane-1-carboxamido)-N-(4-((trifluoromethyl)thio)phenyl)benzamide]	50 to 100	50 to 100	B (More than 0-Less than 80)
CC(C)(C)OC(=O)Nc1ccc(NC(=O)c2cc(NC(=O)[C@H]3[C@H](c4cc(Cl)cc(Cl)c4)C3(Cl)Cl)ccc2Cl)cc1 (relative stereo) [PF13, trans-tert-Butyl-(4-(2-chloro-5-(2,2-dichloro-3-(3,5-dichlorophenyl)cyclopropane-1-carboxamido)benzamido)phenyl)carbamate]	50 to 100	50 to 100	A (80-100)
C#Cc1ccc(NC(=O)c2cc(NC(=O)[C@H]3[C@H](c4cc(Cl)cc(Cl)c4)C3(Cl)Cl)ccc2Cl)cc1 (relative stereo) [PF15, trans-2-Chloro-5-(2,2-dichloro-3-(3,5-dichlorophenyl)cyclopropane-1-carboxamido)-N-(4-ethynylphenyl)benzamide]	50 to 100	50 to 100	B (More than 0-Less than 80)
C=Cc1ccc(NC(=O)c2cc(NC(=O)[C@H]3[C@H](c4cc(Cl)cc(Cl)c4)C3(Cl)Cl)ccc2Cl)cc1 (relative stereo) [PF16, trans-2-Chloro-5-(2,2-dichloro-3-(3,5-dichlorophenyl)cyclopropane-1-carboxamido)-N-(4-vinylphenyl)benzamide]	50 to 100	50 to 100	A (80-100)
O=C(Nc1ccc(S(=O)(=O)CC(F)(F)F)cc1)c1cc(NC(=O)[C@H]2[C@H](c3cc(Cl)cc(Cl)c3)C2(Cl)Cl)ccc1Cl (relative stereo) [PF17, trans-2-chloro-5-(2,2-dichloro-3-(3,5-dichlorophenyl)cyclopropane-1-carboxamido)-N-(4-((2,2,2-trifluoroethyl)sulfonyl)phenyl)benzamide]	50 to 100	50 to 100	B (More than 0-Less than 80)
O=C(Nc1ccc([S+]([O-])CC(F)(F)F)cc1)c1cc(NC(=O)[C@H]2[C@H](c3cc(Cl)cc(Cl)c3)C2(Cl)Cl)ccc1Cl (relative stereo) [PF18, trans-2-Chloro-5-(2,2-dichloro-3-(3,5-dichlorophenyl)cyclopropane-1-carboxamido)-N-(4-((2,2,2-trifluoroethyl)sulfinyl)phenyl)benzamide]	50 to 100	50 to 100	B (More than 0-Less than 80)
O=C(Nc1ccc(S(=O)(=O)C(F)(F)F)cc1)c1cc(NC(=O)[C@H]2[C@H](c3cc(Cl)cc(Cl)c3)C2(Cl)Cl)ccc1Cl (relative stereo) [PF19, trans-2-Chloro-5-(2,2-dichloro-3-(3,5-dichlorophenyl)cyclopropane-1-carboxamido)-N-(4-((trifluoromethyl)sulfonyl)phenyl)benzamide]	50 to 100	50 to 100	A (80-100)
O=C(Nc1ccc([S+]([O-])C(F)(F)F)cc1)c1cc(NC(=O)[C@H]2[C@H](c3cc(Cl)cc(Cl)c3)C2(Cl)Cl)ccc1Cl (relative stereo) [PF20, trans-2-Chloro-5-(2,2-dichloro-3-(3,5-dichlorophenyl)cyclopropane-1-carboxamido)-N-(4-((trifluoromethyl)sulfinyl)phenyl)benzamide]	50 to 100	50 to 100	A (80-100)
Cl.Nc1ccc(NC(=O)c2cc(NC(=O)[C@H]3[C@H](c4cc(Cl)cc(Cl)c4)C3(Cl)Cl)ccc2Cl)cc1 (relative stereo) [PF21, trans-N-(4-aminophenyl)-2-chloro-5-(2,2-dichloro-3-(3,5-dichlorophenyl)cyclopropane-1-carboxamido)benzamide hydrochloride]	50 to 100	50 to 100	A (80-100)
CNc1ccc(NC(=O)c2cc(NC(=O)[C@H]3[C@H](c4cc(Cl)cc(Cl)c4)C3(Cl)Cl)ccc2Cl)cc1 (relative stereo) [PF22, trans-2-Chloro-5-(2,2-dichloro-3-(3,5-dichlorophenyl)cyclopropane-1-carboxamido)-N-(4-(methylamino)phenyl)benzamide hydrochloride]	50 to 100	50 to 100	A (80-100)
O=C(Nc1ccc(NC(=O)C(F)(F)F)cc1)c1cc(NC(=O)[C@H]2[C@H](c3cc(Cl)cc(Cl)c3)C2(Cl)Cl)ccc1Cl (relative stereo) [PF24, trans-2-chloro-5-(2,2-dichloro-3-(3,5-dichlorophenyl)cyclopropane-1-carboxamido)-N-(4-(2,2,2-trifluoroacetamido)phenyl)benzamide]	50 to 100	50 to 100	A (80-100)
O=C(CC(F)(F)F)Nc1ccc(NC(=O)c2cc(NC(=O)[C@H]3[C@H](c4cc(Cl)cc(Cl)c4)C3(Cl)Cl)ccc2Cl)cc1 (relative stereo) [PF25, trans-2-chloro-5-(2,2-dichloro-3-(3,5-dichlorophenyl)cyclopropane-1-carboxamido)-N-(4-(3,3,3-trifluoropropanamido)phenyl)benzamide]	50 to 100	50 to 100	B (More than 0-Less than 80)
C=CC(=O)Nc1ccc(NC(=O)c2cc(NC(=O)[C@H]3[C@H](c4cc(Cl)cc(Cl)c4)C3(Cl)Cl)ccc2Cl)cc1 (relative stereo) [PF26, trans-N-(4-Acrylamidophenyl)-2-chloro-5-(2,2-dichloro-3-(3,5-dichlorophenyl)cyclopropane-1-carboxamido)benzamide]	50 to 100	50 to 100	A (80-100)

— US10219516B2, “Molecules having pesticidal utility, and intermediates, compositions, and processes, related thereto” (priority 2015, dated 2019)
